# Source: US4341781A, “Pyridazopyridazine derivatives” (Hoffmann-La Roche Inc., priority 1979, dated 1982)
# Biological target: T1, angiotensin converting enzyme (Oryctolagus cuniculus, UniProt P12822)
# T1 sequence (P12822 34-1310): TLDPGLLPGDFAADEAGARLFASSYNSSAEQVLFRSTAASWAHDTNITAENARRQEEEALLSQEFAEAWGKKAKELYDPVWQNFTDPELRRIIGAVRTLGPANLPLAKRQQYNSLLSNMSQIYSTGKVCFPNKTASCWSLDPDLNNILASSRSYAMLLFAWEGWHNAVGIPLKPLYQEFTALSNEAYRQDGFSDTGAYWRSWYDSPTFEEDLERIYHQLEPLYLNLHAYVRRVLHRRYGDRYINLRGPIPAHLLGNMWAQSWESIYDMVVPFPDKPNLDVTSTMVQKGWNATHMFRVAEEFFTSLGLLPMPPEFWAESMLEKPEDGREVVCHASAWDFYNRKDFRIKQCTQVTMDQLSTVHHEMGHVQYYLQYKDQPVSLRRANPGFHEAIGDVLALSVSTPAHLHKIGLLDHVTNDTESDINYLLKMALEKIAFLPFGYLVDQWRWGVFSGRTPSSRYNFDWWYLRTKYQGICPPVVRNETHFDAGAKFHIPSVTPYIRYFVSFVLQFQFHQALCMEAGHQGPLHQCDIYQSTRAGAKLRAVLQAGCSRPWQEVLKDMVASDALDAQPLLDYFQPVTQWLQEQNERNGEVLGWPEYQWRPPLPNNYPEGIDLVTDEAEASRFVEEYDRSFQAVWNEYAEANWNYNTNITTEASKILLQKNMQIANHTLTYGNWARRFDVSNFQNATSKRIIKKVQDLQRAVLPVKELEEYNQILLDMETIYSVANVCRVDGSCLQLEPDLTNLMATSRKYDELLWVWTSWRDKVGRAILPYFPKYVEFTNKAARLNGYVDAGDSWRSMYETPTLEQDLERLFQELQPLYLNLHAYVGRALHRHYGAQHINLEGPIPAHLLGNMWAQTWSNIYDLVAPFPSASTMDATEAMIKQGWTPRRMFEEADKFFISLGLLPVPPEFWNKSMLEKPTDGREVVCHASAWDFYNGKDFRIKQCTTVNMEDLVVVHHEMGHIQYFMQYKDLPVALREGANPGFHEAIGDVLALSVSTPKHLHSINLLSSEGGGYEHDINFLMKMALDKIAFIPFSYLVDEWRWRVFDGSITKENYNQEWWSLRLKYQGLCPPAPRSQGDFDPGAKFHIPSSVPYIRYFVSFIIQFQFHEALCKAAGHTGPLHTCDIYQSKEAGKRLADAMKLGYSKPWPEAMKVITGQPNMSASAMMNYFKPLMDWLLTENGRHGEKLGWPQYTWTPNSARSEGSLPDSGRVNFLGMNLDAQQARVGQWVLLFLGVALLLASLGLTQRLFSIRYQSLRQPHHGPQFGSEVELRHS
# Assay: Inhibition of angiotensin converting enzyme in vitro (hippuryl-histidyl-leucine cleavage, Cushman and Cheung method modified by Hayakari et al.)
# Format: biochemical
# Conditions: substrate hippuryl-histidyl-leucine 2 mM; potassium phosphate buffer pH 8.3, 300 mM NaCl; 25 minutes at 37° C.
# Experimental: The activity of the present pyridazopyridazine derivatives in inhibiting angiotensin converting enzyme in vitro can be determined by the following test.
# The method used is based on the method of Cushman and Cheung (Biochem. Pharmacol., 20, 1637-1648) incorporating the modifications introduced by Hayakari, et al. (Anal. Biochem., 84, 361-369). The substrate (hippuryl-histidyl-leucine, 2 mM) is incubated with angiotensin converting enzyme in the presence or absence of various concentrations of test substance in potassium phosphate buffer (pH 8.3; 100 mM) containing sodium chloride (300 mM) for 25 minutes at 37° C. (total […] 500 μl). The reaction is terminated by the addition of 3 ml of potassium phosphate buffer (pH 8.3; 200 mM) at 0° C. 2,4,6-Trichloro-s-triazine (3%) in 1.5 ml of dioxane is added and the mixture is agitated until the yellow chromophore has developed fully. The samples are then centrifuged to remove any precipitate which has formed. The yellow chromophore formed by the reaction of the 2,4,6-trichloro-s-triazine with free hippuric acid is measured spectrophotometrically at 382 nm. IC50 values are defined as the concentration of test substance which reduces by 50% the cleavage of hippuryl-histidylleucine by angiotensin converting enzyme under the aforementioned conditions.
structure (smiles),measurement,value
"O=C(O)C1CCCN2C(=O)CC(CS)C(=O)N12 (racemic) [racemic 8-(mercaptomethyl)-octahydro-6,9-dioxopyridazo[1,2-a]pyridazine-1-carboxylic acid]",IC50,62.5 nM
